According to US20240239750A1, “PHARMACEUTICAL PREPARATION” (Aerie Pharmaceuticals, Inc., priority 2021, published 2024):
“And” between values parts separate entries of the source, which are not always exact repeats. Identical values can stand only once.

Key:
Format in all cases: physicochemical
[1] = TG/DSC thermal analysis; details: for Enthalpy / Onset Temperature / Signal Temperature: TG/DSC signal of Compound 1 mono-tosylate solid form; for onset of thermal decomposition: TG/DSC, 10° C./min
Protocol: Thermogravimetric Analysis/Differential Scanning Calorimetry (TGA/DSC): Approximately, 5-10 mg of material was added into a pre-tared open aluminum pan and loaded into a TA Instruments Discovery SDT 650 Auto—Simultaneous DSC and held at room temperature. The sample was then heated at a rate of 10° C./min from 30° C. to 350° C. during which time the change in sample weight was recorded along with the heat flow response (DSC). Nitrogen was used as the sample purge gas, at a flow rate of 200 cm^3/min.
Thermogravimetric/Differential Thermal Analysis (TG/DTA): Approximately, 5-10 mg of material was added into a pre-tared open aluminum pan and loaded into a TA Instruments Discovery SDT 650 Auto—Simultaneous DSC and held at room temperature. The sample was then heated at a rate of 10° C./min from 30° C. to 350° C. during which time the change in sample weight was recorded along with the heat flow response (DSC). Nitrogen was used as the sample purge gas, at a flow rate of 200 cm^3/min. […]

[2] = Polymorph stability study (competitive slurrying)
Protocol: To prepare solutions saturated with Compound 1 mono-tosylate for competitive slurrying, 2×100 mg (0.20 mmol) amorphous Compound 1 mono-tosylate was weighed into 2×4 mL vials. To each vial, 500 μL of ethanol was added and the vials were manually shaken for a few seconds. Complete dissolution was noted. A further about 20 mg of amorphous Compound 1 mono-tosylate was added to each vial and the vials were agitated for about 3 hours: one vial at ambient temperature and one vial at 60° C. After about 3 hours, both were solutions. More amorphous Compound 1 mono-tosylate (about 30 mg) was added to each vial and they were shaken at their respective temperatures again for about another hour. Both appeared to be slurries. To remove the excess solids, the slurries were filtered centrifugally and the mother liquors each placed into separate, clean vials. […] After 48 hours, the solids were recovered via centrifugal filtration and analyzed by XRPD. The XRPD plate containing the solids was then dried at 40° C. for 2 hours and re-analyzed.
To prepare a solution saturated with amorphous Compound 1 mono-tosylate for competitive slurrying, 50 mg (0.10 mmol) of amorphous Compound 1 mono-tosylate was weighed into a 4 mL vial. […] After 72 hours, the solids were recovered via centrifugal filtration and analyzed by XRPD.

[3] = Drying of solids and re-analysis by XRPD (form conversion)
Protocol: Any new solids which produced patterns by XRPD were dried at 40° C. for 24 hours before being analyzed again. Potential New Patterns were also analyzed by ^1H NMR, PLM and TG/DSC.
To prepare crystalline forms 1 and 4 of Compound 1 mono-tosylate, 2×500 mg (1.01 mmol) of amorphous Compound 1 mono-tosylate was placed into 20 ml vials. To each of these vials, 12 ml of solvent (dichloromethane for crystalline form 1 and tetrahydrofuran for crystalline form 4) was added to prepare slurries. Volumes/mass used were a direct scale-up from the primary screen discussed above. The slurries were thermally cycled (with agitation) between ambient temperature and 40° C. (4-hour cycles at each condition) for 72 hours. Post-thermal cycling, an aliquot of solid was removed from each vial using a micro-spatula and analyzed by XRPD to confirm that the desired form was produced. The remainder of each slurry was then filtered by Buchner filtration. The solids were dried on the filter bed for no longer than 1 minute before being transferred to pre-weighed 20 ml vials. The solids were then dried under vacuum at ambient temperature for 2 hours. Another aliquot of each solid was analyzed by XRPD post-drying. […] As such, the solids were transferred to an oven at 40° C. (ambient pressure) and subsequently dried for approximately 18 hours. […] Crystalline form 1 yield: 86.1%. Crystalline form 4 yield: 84.2%.

[4] = 7 day stability study of solid forms (XRPD, HPLC); details: stored 7 days; 40° C./75% RH (open vial) according to b80 and FIG. 14 legend
Protocol: Crystalline form 5 of Compound 1 mono-tosylate was obtained during a 7 day stability study for crystalline forms 1 and 4. In the study, 3×20 mg (0.04 mmol) of crystalline forms 1 and 4, and amorphous Compound 1 mono-tosylate, were individually weighted into 1.5 mL vials and stored under the following conditions for 7 days: • (i) 40° C./75% relative humidity (RH) (open vial); • (ii) 80° C./ambient humidity (sealed vial); and • (iii) Ambient conditions (open vial).
After 7 days, any remaining solids recovered were analyzed by XRPD to assess form purity and HPLC changes in chemical purity. […] More crystalline form 5 was prepared by storing 100 mg of crystalline form 4 […] for approximately 4 days.

[5] = listed as Amorphous, mono-tosylate salt
[6] = listed as Form 6, mono-tosylate salt

## Cc1ccc(S(=O)(=O)O)cc1.NC[C@@H](C(=O)Nc1ccc2cnccc2c1)c1ccc(CO)cc1 [amorphous Compound 1 mono-tosylate, alpha-(aminomethyl)-4-(hydroxymethyl)-N-6-isoquinolinyl-(S)-benzeneacetamide mono-tosylate salt]
[1]; [5]
  Enthalpy: 94.1 J/g
  Onset Temperature: 184.0 °C
  Signal Temperature: 202.1 °C
[1]; listed as Amorphous Compound 1 Mono-Tosylate, mono-tosylate salt
  onset of thermal decomposition: event associated with decomposition observed (onset 184° C.)
[1]; listed as amorphous Compound 1, mono-tosylate salt
  onset of thermal decomposition: 184 °C
[1]; listed as amorphous material, mono-tosylate salt
  onset of thermal decomposition: about 184 °C

## Cc1ccc(S(=O)(=O)O)cc1.NC[C@@H](C(=O)Nc1ccc2cnccc2c1)c1ccc(CO)cc1 [crystalline form 1, alpha-(aminomethyl)-4-(hydroxymethyl)-N-6-isoquinolinyl-(S)-benzeneacetamide mono-tosylate salt]
[2]; forms 1, 4 and 5 together in saturated ethanol, 48 hours, ambient temperature and 60° C.
  form recovered (XRPD) after competitive slurrying: New crystalline form 6 was observed
[1]; mono-tosylate salt
  onset of thermal decomposition: 189 °C

## Cc1ccc(S(=O)(=O)O)cc1.NC[C@@H](C(=O)Nc1ccc2cnccc2c1)c1ccc(CO)cc1 [crystalline form 3, alpha-(aminomethyl)-4-(hydroxymethyl)-N-6-isoquinolinyl-(S)-benzeneacetamide mono-tosylate salt]
[3]; drying at 40° C. for approximately 24 hours
  form conversion on drying: convert to crystalline form 4
[3]; oven at 40° C. (ambient pressure), approximately 18 hours
  form conversion on drying: converted to crystalline form 4
[3]; under vacuum at ambient temperature for 2 hours
  form after drying: crystalline form 3 remained also

## Cc1ccc(S(=O)(=O)O)cc1.NC[C@@H](C(=O)Nc1ccc2cnccc2c1)c1ccc(CO)cc1 [crystalline form 4, alpha-(aminomethyl)-4-(hydroxymethyl)-N-6-isoquinolinyl-(S)-benzeneacetamide mono-tosylate salt]
[4]
  crystalline form found by XRPD after 7 day stability study: converted into a new crystalline form: crystalline form 5
[1]; listed as Form 4, mono-tosylate salt
  Enthalpy: 148.3 J/g and 126.6 J/g

## Cc1ccc(S(=O)(=O)O)cc1.NC[C@@H](C(=O)Nc1ccc2cnccc2c1)c1ccc(CO)cc1 [crystalline form 6, alpha-(aminomethyl)-4-(hydroxymethyl)-N-6-isoquinolinyl-(S)-benzeneacetamide mono-tosylate salt]
[2]; dried at 40° C. for 2 hours
  form after drying of the recovered solids: retained on drying
[1]; [6]
  Enthalpy: 165.0 J/g
  Onset Temperature: 196.2 °C
  Signal Temperature: 201.5 °C
[1]; no loss in mass on heating prior to melting/decomposition
  stability of the form (conclusion from thermal and NMR analyses): stable anhydrous form
